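Dose response: 5 concentrations. Exposure: 48 h. Format: 96-well plates. Endpoint: linear interpolation; highest concentration if not reached. The concentration for full growth arrest is given as TGI.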
What was measured:
Assay in all cases: NCI anticancer screen, dose series, 48 h
A549 NSCLC = test system: A549 NSCLC
MDA-MB-231 breast = test system: MDA-MB-231 breast
IGROV1 ovarian = test system: IGROV1 ovarian
NCI/ADR-RES ovarian = test system: NCI/ADR-RES ovarian
SF-268 CNS = test system: SF-268 CNS
SF-295 CNS = test system: SF-295 CNS
HOP-92 NSCLC = test system: HOP-92 NSCLC
K-562 leukemia = test system: K-562 leukemia
MDA-MB-435 = test system: MDA-MB-435
PC-3 prostate = test system: PC-3 prostate
SK-OV-3 ovarian = test system: SK-OV-3 ovarian
UACC-62 melanoma = test system: UACC-62 melanoma
786-0 renal = test system: 786-0 renal
SW-620 colon = test system: SW-620 colon
NCI-H23 lung = test system: NCI-H23 lung
HL-60(TB) leukemia = test system: HL-60(TB) leukemia
DU-145 prostate = test system: DU-145 prostate
U251 CNS = test system: U251 CNS
HCT-116 colon = test system: HCT-116 colon
CCRF-CEM leukemia = test system: CCRF-CEM leukemia
OVCAR-5 ovarian = test system: OVCAR-5 ovarian
CAKI-1 renal = test system: CAKI-1 renal
SN12C renal = test system: SN12C renal
HT29 colon = test system: HT29 colon
A498 renal = test system: A498 renal
SK-MEL-28 melanoma = test system: SK-MEL-28 melanoma
MOLT-4 leukemia = test system: MOLT-4 leukemia
HCC-2998 colon = test system: HCC-2998 colon
OVCAR-8 ovarian = test system: OVCAR-8 ovarian
SNB-75 CNS = test system: SNB-75 CNS
KM12 colon = test system: KM12 colon
OVCAR-4 ovarian = test system: OVCAR-4 ovarian
T-47D breast = test system: T-47D breast
OVCAR-3 ovarian = test system: OVCAR-3 ovarian
SK-MEL-2 melanoma = test system: SK-MEL-2 melanoma
RPMI-8226 leukemia = test system: RPMI-8226 leukemia
SK-MEL-5 melanoma = test system: SK-MEL-5 melanoma
ACHN renal = test system: ACHN renal
RXF 393 renal = test system: RXF 393 renal
LOX IMVI melanoma = test system: LOX IMVI melanoma
HOP-62 NSCLC = test system: HOP-62 NSCLC
M14 melanoma = test system: M14 melanoma
SF-539 CNS = test system: SF-539 CNS
HS 578T breast = test system: HS 578T breast
MDA-N = test system: MDA-N
SNB-19 CNS = test system: SNB-19 CNS
EKVX NSCLC = test system: EKVX NSCLC
NCI-H460 lung = test system: NCI-H460 lung
SR leukemia = test system: SR leukemia
UO-31 renal = test system: UO-31 renal
HCT-15 colon = test system: HCT-15 colon
BT-549 breast = test system: BT-549 breast
COLO 205 colon = test system: COLO 205 colon
MCF7 breast = test system: MCF7 breast
NCI-H226 lung = test system: NCI-H226 lung
TK-10 renal = test system: TK-10 renal
UACC-257 melanoma = test system: UACC-257 melanoma
NCI-H522 lung = test system: NCI-H522 lung
MALME-3M melanoma = test system: MALME-3M melanoma

Structure (SMILES): CCOc1ccccc1N=Cc1c2ccccc2cc2ccccc12
- TGI (A549 NSCLC): 80.9 µM
- TGI (MDA-MB-231 breast): 67.4 µM
- TGI (IGROV1 ovarian): 49.9 µM
- TGI (NCI/ADR-RES ovarian): > 66.1 µM
- TGI (SF-268 CNS): 54.5 µM
- TGI (SF-295 CNS): > 100 µM
- TGI (HOP-92 NSCLC): 53.4 µM
- TGI (K-562 leukemia): > 67.7 µM
- TGI (MDA-MB-435): 56 µM
- TGI (PC-3 prostate): > 68.8 µM
- TGI (SK-OV-3 ovarian): 68.6 µM
- TGI (UACC-62 melanoma): > 100 µM
- TGI (786-0 renal): 41.1 µM
- TGI (SW-620 colon): > 100 µM
- TGI (NCI-H23 lung): 45.9 µM
- TGI (HL-60(TB) leukemia): 53 µM
- TGI (DU-145 prostate): 58.4 µM
- TGI (U251 CNS): > 63.9 µM
- TGI (HCT-116 colon): 41.5 µM
- TGI (CCRF-CEM leukemia): > 58.1 µM
- TGI (OVCAR-5 ovarian): 68.9 µM
- TGI (CAKI-1 renal): > 92.4 µM
- TGI (SN12C renal): 61.5 µM
- TGI (HT29 colon): 54.2 µM
- TGI (A498 renal): > 72.4 µM
- TGI (SK-MEL-28 melanoma): > 73.5 µM
- TGI (MOLT-4 leukemia): 53.3 µM
- TGI (HCC-2998 colon): 44.3 µM
- TGI (OVCAR-8 ovarian): 70 µM
- TGI (SNB-75 CNS): 47.7 µM
- TGI (KM12 colon): 49.3 µM
- TGI (OVCAR-4 ovarian): > 74 µM
- TGI (T-47D breast): 64.1 µM
- TGI (OVCAR-3 ovarian): > 67.6 µM
- TGI (SK-MEL-2 melanoma): 53.4 µM
- TGI (RPMI-8226 leukemia): 56.5 µM
- TGI (SK-MEL-5 melanoma): > 83.8 µM
- TGI (ACHN renal): > 93.3 µM
- TGI (RXF 393 renal): 37.4 µM
- TGI (LOX IMVI melanoma): 38.2 µM
- TGI (HOP-62 NSCLC): > 84.3 µM
- TGI (M14 melanoma): 41.1 µM
- TGI (SF-539 CNS): > 71.4 µM
- TGI (HS 578T breast): > 53.9 µM
- TGI (MDA-N): 53.3 µM
- TGI (SNB-19 CNS): > 88.4 µM
- TGI (EKVX NSCLC): 52.3 µM
- TGI (NCI-H460 lung): > 100 µM
- TGI (SR leukemia): 61.7 µM
- TGI (UO-31 renal): 43.6 µM
- TGI (HCT-15 colon): > 83.5 µM
- TGI (BT-549 breast): 70.1 µM
- TGI (COLO 205 colon): > 88.7 µM
- TGI (MCF7 breast): > 79.8 µM
- TGI (NCI-H226 lung): > 100 µM
- TGI (TK-10 renal): 67.2 µM
- TGI (UACC-257 melanoma): > 74.4 µM

Structure (SMILES): CCOC(=O)CCC(NC(=O)c1ccc(Nc2nc3ccccc3nc2C(=O)OCC)s1)C(=O)OCC (stereo unspecified)
- TGI (A549 NSCLC): > 100 µM
- TGI (MDA-MB-231 breast): > 100 µM
- TGI (IGROV1 ovarian): > 100 µM
- TGI (NCI/ADR-RES ovarian): > 100 µM
- TGI (SF-268 CNS): > 100 µM
- TGI (HOP-92 NSCLC): > 100 µM
- TGI (K-562 leukemia): > 100 µM
- TGI (MDA-MB-435): > 100 µM
- TGI (PC-3 prostate): > 100 µM
- TGI (SK-OV-3 ovarian): > 100 µM
- TGI (UACC-62 melanoma): > 100 µM
- TGI (786-0 renal): > 100 µM
- TGI (SW-620 colon): > 100 µM
- TGI (HL-60(TB) leukemia): > 100 µM
- TGI (DU-145 prostate): > 100 µM
- TGI (U251 CNS): > 100 µM
- TGI (NCI-H522 lung): > 100 µM
- TGI (HCT-116 colon): > 100 µM
- TGI (OVCAR-5 ovarian): > 100 µM
- TGI (CAKI-1 renal): > 100 µM
- TGI (SN12C renal): > 100 µM
- TGI (HT29 colon): > 100 µM
- TGI (A498 renal): > 100 µM
- TGI (SK-MEL-28 melanoma): > 100 µM
- TGI (MOLT-4 leukemia): > 100 µM
- TGI (HCC-2998 colon): > 100 µM
- TGI (OVCAR-8 ovarian): > 100 µM
- TGI (SNB-75 CNS): > 100 µM
- TGI (KM12 colon): > 100 µM
- TGI (MALME-3M melanoma): > 100 µM
- TGI (OVCAR-4 ovarian): > 100 µM
- TGI (T-47D breast): > 100 µM
- TGI (OVCAR-3 ovarian): > 100 µM
- TGI (SK-MEL-2 melanoma): > 100 µM
- TGI (RPMI-8226 leukemia): > 100 µM
- TGI (SK-MEL-5 melanoma): > 100 µM
- TGI (RXF 393 renal): > 100 µM
- TGI (LOX IMVI melanoma): > 100 µM
- TGI (M14 melanoma): > 100 µM
- TGI (SF-539 CNS): > 100 µM
- TGI (HS 578T breast): > 100 µM
- TGI (MDA-N): > 100 µM
- TGI (SNB-19 CNS): > 100 µM
- TGI (EKVX NSCLC): > 100 µM
- TGI (NCI-H460 lung): > 100 µM
- TGI (SR leukemia): > 100 µM
- TGI (UO-31 renal): > 100 µM
- TGI (HCT-15 colon): > 100 µM
- TGI (BT-549 breast): > 100 µM
- TGI (COLO 205 colon): > 100 µM
- TGI (MCF7 breast): > 100 µM
- TGI (NCI-H226 lung): > 100 µM
- TGI (TK-10 renal): > 100 µM
- TGI (UACC-257 melanoma): > 100 µM
